Results as given in patent publication US10179773B2, “Isoxazole carboxamides as irreversible SMYD inhibitors” (EPIZYME, INC., priority 2014, dated 2019).

Columns and labels:
SMYD3 [1] = molecular target: T1, SMYD3 (Homo sapiens (Human), UniProt Q9H7B4); assay: SMYD3 Cell Assay (Trimethyl-MEKK2 In-Cell Western, 293T/17 cells); assay type: cell-based; details: 293T/17 cells transfected with MEKK2-flag and SMYD3; 24 hours; trimethyl-MEKK2 signal; average of n = 1 to n = 50
Excerpt: 293T/17 adherent cells were purchased from ATCC (American Type Culture Collection), Manassas, Va., USA. MEM/Glutamax medium, Optimem Reduced Serum medium, penicillin-streptomycin, 0.05% trypsin and 1× D-PBS were purchased from Life Technologies, Grand Island, N.Y., USA. PBS-10× was purchased from Ambion, Life Technologies, Grand Island, N.Y., USA. PBS with Tween 20 (PBST (10×)) was purchased from KPL, Gaithersburg, Md., USA. Tet System FBS-approved FBS US Source was purchased from Clontech, Mountain View, Calif., USA. Odyssey blocking buffer, 800CW goat anti-rabbit IgG (H+L) antibody, 680CW Goat anti-mouse IgG (H+L) and Licor Odyssey infrared scanner were purchased from Licor Biosciences, Lincoln, Nebr., USA. Tri-methyl-Lysine [A260]-MEKK2 antibody, MEKK2 and SMYD3 plasmids were made at Epizyme. Anti-flag monoclonal mouse antibody was purchased from Sigma, St. Louis, Mo., USA. Methanol was purchased from VWR, Franklin, Mass., USA. 10% Tween 20 was purchased from KPL, Inc., Gaithersburg, Md., USA. Fugene was purchased from Promega, Madison, Wis., USA. The Biotek ELx405 was purchased from BioTek, Winooski, Vt., USA. The multidrop combi was purchased from Thermo Scientific, Waltham, Mass., USA.
293T/17 adherent cells were maintained in growth medium (MEM/Glutamax medium supplemented with 10% v/v Tet System FBS and cultured at 37° C. under 5% CO2.
293T/17 cells were seeded in assay medium at a concentration of 33,333 cells per cm^2 in 30 mL medium per T150 flask and incubated at 37° C. under 5% CO2. Plasmids were prepared for delivery to cells by first mixing 1350 μL Opti-MEM with Fugene (81 μL) in a sterile Eppendorf and incubated for five minutes at room temperature (RT). MEKK2-flag (13.6 ug/T150) MEKK2 p3XFlag-CMV-14 with C-3XFlag and SMYD3 (0.151 ug/T150) SMYD3 p3XFlag-CMV-14 without C-3XFlag plasmids were aliquotted to a 1.7 mL sterile microfuge tube. The gene ID for MEKK2 and SMYD3 is NM_006609.3 and Q9H7B4, respectively. Entire volume of Opti-MEM/Fugene mixture was then added to a microfuge tube containing DNA plasmid, mixed and then incubated ×15 minutes at RT. The medium on the 293T/17 cells was refreshed, and the DNA/Fugene complex is added aseptically to each flask, rocked gently, and incubated at 37 C for 5 hours. Medium was then removed, and cells were washed once with PBS in the flask. Trypsin 0.05% (3 mL) was added and cells incubated for three minutes. Room temperature MEM+10% Tet system FBS was added and cells were mixed gently, and counted using the Vi-cell. Cells were seeded at 100,000 cells/mL in 50 μL MEM/10% Tet FBS/Pen/Strep to a 384 well black/clear poly-D-lysine coated plate containing test agent diluted in DMSO. The final top concentration of test compound was 40 μM. […] Plates were incubated×30 minutes at RT in low-airflow area, followed by incubation at 37° C. under 5% CO2 for 24 hours. Medium was aspirated from all wells of assay plates prior to fixation and permeabilization with ice cold (−20° C.) methanol (90 μL/well) for ten minutes. Plates were rinsed with PBS three times on BioTek ELx405. PBS was removed with a final aspiration, and Odyssey blocking buffer (50 μL/well) was added to each well and incubated for one hour at RT. Primary antibody solution was prepared (anti-trimethyl-MEKK2 at 1:600 dilution plus mouse anti-flag antibody at 1:10,000 dilution in diluent (Odyssey Blocking buffer+0.1% Tween 20)) and 20 μL per well was dispensed using the Multidrop Combi. Assay plates were then sealed with foil, and incubated overnight at 4° C. Plates were washed five times with PBS-Tween (1×) on Biotek ELx405 and blotted on paper towel to remove excess reagent. […]

SMYD3 [2] = molecular target: T1, SMYD3; assay: SMYD3 Biochemical Assay (MEKK2 protein substrate, 3H-SAM, SPA); details: 30 min preincubation with SMYD3, average of n = 1 to n = 50, read-out: SMYD3 Biochem IC50
Excerpt: S-adenosylmethionine (SAM), S-adenosylhomocysteine (SAH), Tris, Tween20, dimethylsulfoxide (DMSO), bovine skin gelatin (BSG), and Tris(2-carboxyethyl)phosphine hydrochloride solution (TCEP) were purchased from Sigma-Aldrich at the highest level of purity possible. ^3H-SAM was purchase from American Radiolabeled Chemicals with a specific activity of 80 Ci/mmol. 384-well opaque white OptiPlates and SPA beads (Perkin Elmer, catalog # RPNQ0013) were purchased from PerkinElmer.
N-terminally GST-tagged MEKK2 (MAP3K2) protein corresponding to reference sequence AAF63496.3 was purchased from Life Technologies (catalog # PV4010). This protein was expressed in High Five insect cells and purified to >85% purity. Protein identity was confirmed by MS/MS analysis after proteolytic digestion. The protein sequence used was:
Full-length human SMYD3 isoform 1 (BAB86333) was inserted into a modified pET21b plasmid containing a His6 tag and TEV and SUMO cleavage sites. Because two common variants of SMYD3 exist in the population, site directed mutagenesis was subsequently performed to change amino acid 13 from an asparagine to a lysine, resulting in plasmid pEPZ533. A lysine at position 13 conforms to the more commonly occurring sequence (NP_001161212).
E. coli (BL21 codonplus RIL strain, Stratagene) were transformed with plasmid pEPZ553 by mixing competent cells and plasmid DNA and incubating on ice for 30 minutes followed by heat shock at 42° C. for 1 minute and cooling on ice for 2 minutes. Transformed cells were grown and selected on LB agar with 100 μg/mL ampicillin and 17 μg/mL chloramphenicol at 37° C. overnight. A single clone was used to inoculate 200 mL of LB medium with 100 μg/mL ampicillin and 17 μg/mL chloramphenicol and incubated at 37° C. on an orbital shaker at 180 rpm. Once in log growth, the culture was diluted 1:100 into 2 L of LB medium and grown until OD600 was about 0.3 after which the culture was incubated at 15° C. and 160 rpm. Once OD600 reached about 0.4, IPTG was added to a final concentration of 0.1 mM and the cells were grown overnight at 15° C. and 160 rpm. Cells were harvested by centrifugation at 8000 rpm, for 4 minutes at 4° C. and stored at −80° C. for purification.
Expressed full-length human His-tagged SMYD3 protein was purified from cell paste by Nickel affinity chromatography after equilibration of the resin with Buffer A (25 mM Tris, 200 mM NaCl, 5% glycerol, 5 mM β-mercaptoethanol, pH7.8). The column was washed with Buffer B (Buffer A plus 20 mM imidazole) and His-tagged SMYD3 was eluted with Buffer C (Buffer A plus 300 mM imidazole). The His tag, TEV and SUMO cleavage sites were removed generating native SMYD3 by addition of ULP1 protein at a ratio of 1:200 (ULP1:SMYD3). Imidazole was removed by dialysis overnight in Buffer A. The dialyzed solution was applied to a second Nickel column and the native SMYD3 protein was collected from the column flow-through. The flow-through was dialyzed in Buffer D (25 mM Tris, 5% glycerol, 5 mM β-mercaptoethanol, 50 mM NaCl, pH7.8) and ULP1 was removed using a Q sepharose fast flow column. SMYD3 was eluted in Buffer A and further purified using an S200 size-exclusion column equilibrated with Buffer A. SMYD3 was concentrated to 2 mg/mL with a final purity of 89%.
The assays were all performed in a buffer consisting of 25 mM Tris-Cl pH 8.0, 1 mM TCEP, 0.005% BSG, and 0.005% Tween 20, prepared on the day of use. Compounds in 100% DMSO (1 ul) were spotted into a 384-well white opaque OptiPlate using a Bravo automated liquid handling platform outfitted with a 384-channel head (Agilent Technologies). DMSO (1 ul) was added to Columns 11, 12, 23, 24, rows A-H for the maximum signal control and 1 ul of SAH, a known product and inhibitor of SMYD3, was added to columns 11, 12, 23, 24, rows I-P for the minimum signal control. A cocktail (40 ul) containing the SMYD3 enzyme was added by Multidrop Combi (Thermo-Fisher). […]

T1 sequence (Q9H7B4 whole entry): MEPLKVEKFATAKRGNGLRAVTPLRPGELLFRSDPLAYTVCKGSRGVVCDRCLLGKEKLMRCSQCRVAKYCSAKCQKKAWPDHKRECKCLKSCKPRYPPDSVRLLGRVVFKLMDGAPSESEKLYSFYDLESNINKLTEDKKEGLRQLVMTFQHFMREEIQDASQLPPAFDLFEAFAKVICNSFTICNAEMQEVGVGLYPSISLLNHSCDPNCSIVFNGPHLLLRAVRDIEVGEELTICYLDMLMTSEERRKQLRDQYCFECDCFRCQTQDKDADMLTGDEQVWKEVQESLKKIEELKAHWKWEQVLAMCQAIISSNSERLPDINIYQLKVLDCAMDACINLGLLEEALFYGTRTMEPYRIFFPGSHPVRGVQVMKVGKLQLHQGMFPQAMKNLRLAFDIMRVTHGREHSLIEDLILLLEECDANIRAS

IC50 (SMYD3 [1]) | IC50 (SMYD3 [2]) | SMILES
> 10 µM | > 10 µM | C=CS(=O)(=O)N1CC(NC(=O)c2cc(C3CC3)on2)C1 [Cpd. No. 1, 5-cyclopropyl-N-(1-(vinylsulfonyl)azetidin-3-yl) isoxazole-3-carboxamide]
 | 31 µM | C=CS(=O)(=O)N[C@H]1CC[C@H](NC(=O)c2cc(C3CC3)on2)CC1 [Cpd. No. 2, 5-cyclopropyl-N-((1r,4r)-4-(vinylsulfonamido)cyclohexyl) isoxazole-3-carboxamide]
6.65 µM | 33.5 µM | O=C(NC1CCN(C(=O)CCl)CC1)c1cc(C2CC2)on1 [Cpd. No. 4, N-(1-(2-chloroacetyl)piperidin-4-yl)-5-cyclopropylisoxazole-3-carboxamide]
> 10 µM | > 100 µM | C=CC(=O)N1CCC(NC(=O)c2cc(C3CC3)on2)CC1 [Cpd. No. 5, N-(1-acryloylpiperidin-4-yl)-5-cyclopropylisoxazole-3-carboxamide]
> 10 µM | 74.1 µM | C=CC(=O)N[C@H]1CC[C@H](NC(=O)c2cc(C3CC3)on2)CC1 [compound 3, N-((1r,4r)-4-acrylamidocyclohexyl)-5-cyclopropylisoxazole-3-carboxamide]
2.12 µM | 5.27 µM | C=CS(=O)(=O)N1CCC(NC(=O)c2cc(C3CC3)on2)C[C@@H]1C (stereo partly drawn) [compound 6, 5-cyclopropyl-N-((2S)-2-methyl-1-(vinylsulfonyl)piperidin-4-yl) isoxazole-3-carboxamide]
2.19 µM | 3.68 µM | C=CS(=O)(=O)N1CCC(NC(=O)c2cc(C3CC3)on2)C[C@H]1C (stereo partly drawn) [compound 7, 5-cyclopropyl-N-((2R)-2-methyl-1-(vinylsulfonyl)piperidin-4-yl) isoxazole-3-carboxamide]
> 10 µM | > 10 µM | C=CS(=O)(=O)N[C@H]1CC[C@@H](NC(=O)c2cc(C3CC3)on2)CC1 [compound 8, 5-cyclopropyl-N-((1s,4s)-4-(vinylsulfonamido)cyclohexyl) isoxazole-3-carboxamide]
 | 31.7 µM | C=CS(=O)(=O)N1CCC(NC(=O)c2cc(C3CC3)on2)CC1 [compound 9, 5-cyclopropyl-N-(1-(vinylsulfonyl)piperidin-4-yl) isoxazole-3-carboxamide]
 | > 50 µM | C=CS(=O)(=O)N1CCC(NC(=O)c2cc(C3CC3)on2)C1 (centres unmarked) [compound 10, 5-cyclopropyl-N-(1-(vinylsulfonyl)pyrrolidin-3-yl) isoxazole-3-carboxamide]
